Structures can show the parent of a compound that is named as a salt.
Tests used:
MDA-MB-231 = test: In vitro cytotoxicity (MTT) on MDA-MB-231; assay type: cell-based, human; settings: MDA-MB-231, MTT, 48 h
[1] = test system: MCF-7 (human breast adenocarcinoma, estrogen-positive); test: In vitro cytotoxicity (MTT) on MCF-7; assay type: cell-based; settings: MCF-7, MTT, 48 h
Protocol: (§1) Anticancer activity of deuterated selenopheno[h]chromenes was tested in vitro using cytotoxicity assay. Thus, monolayer tumor cell lines MDA-MB-435s (human melanoma), MCF-7 (human breast adenocarcinoma, estrogen-positive), MES-SA (human uterus sarcoma), HT-1080 (human fibrosarcoma), A549 (human lung carcinoma), GM08402 (human fibroblast, apparently healthy), 3T3 (mouse embryo fibroblasts), H9C2 (rat cardiomyocytes) were cultured in standard medium DMEM (Dulbecco's modified Eagle's medium) (“Sigma”) supplemented with 10% heat-inactivated fetal bovine serum (“Sigma”). The cell viability was assessed by addition of 3-(4,5-dimethylthiazol-2-yl)-2,5-diphenyltetrazolinium bromide (MTT). Briefly, cells were seeded (2−6×10^4 cells/ml) in 96-well plates and allowed to attach for 24 h.
(§2) Tested compound solutions were prepared and serially diluted to obtain appropriate concentrations. Cells were treated with different concentrations (0.032-100 μM) and incubated for 48 h at 37° C., 5% CO2 Then the culture medium was removed and medium containing 0.2 mg/ml MTT was added. After 3 h (37° C., 5% CO2), the MTT-containing medium was removed, and 200 μl of dimethyl sulfoxide (DMSO) was immediately added to each sample. The absorbance was assessed at 540 nm on a Tecan multiplate reader Infinite 1000 (Austria). The half-maximal inhibitory concentration (IC50) of each compound was calculated using Graph Pad Prism® 3.0.

[2] = test system: MES-SA (human uterus sarcoma); test: In vitro cytotoxicity (MTT) on MES-SA; assay type: cell-based; settings: 48 h
Protocol: as §1, §2

[3] = test system: HT-1080 (human fibrosarcoma); test: In vitro cytotoxicity (MTT) on HT-1080; assay type: cell-based; settings: HT-1080, MTT, 48 h
Protocol: as §1, §2

[4] = test system: A549 (human lung carcinoma); test: In vitro cytotoxicity (MTT) on A549; assay type: cell-based; settings: 48 h
Protocol: as §1, §2

[5] = In vitro cytotoxicity (MTT) on GM08402; assay type: cell-based, human; settings: human, GM08402 fibroblasts
Protocol: as §1, §2

[6] = In vitro cytotoxicity (MTT) on 3T3; assay type: cell-based, mouse; settings: mouse, 3T3 embryo fibroblasts, 3T3, MTT
Protocol: as §1, §2

[7] = In vitro cytotoxicity (MTT) on H9C2; assay type: cell-based, rat; settings: rat, H9C2 cardiomyocytes
Protocol: as §1, §2

[8] = Metabolic stability in vitro, lysate of human hepatoma cells HepG2; assay type: in vitro ADME; settings: 37° C.
Protocol: Assay: the human hepatoma cells HepG2 (ATCC HB-8065) were grown in Eagle's Minimum Essential Medium supplemented with 10% fetal calf serum. The cells were harvested at 80% confluence. The hepatocytes were scraped, two time washed in Hank's Balanced Salt Solution (HBSS) buffer pH-7.4 and suspended in homogenization buffer composed of 10 mM Tris-HCl, 10 mM KCl, 0.15 mM MgCl2 pH 6.7. The cells were homogenized on ice by homogenizer LabGEN7 (Cole Palmer) at 5000 rpm 15 sec. Homogenized cells in HBSS with compound (protein concentration is 95 μg/ml) incubate 37° C. After 10, 30, 60, 120, 180, and 240 min collect 1 ml sample and add 0.1 ml 40% TCA, then centrifugation at 1200 g for 10 min. Supernatant collected and analyzed.
Results: The stability of deuterated selenopheno[h]chromenes I-1-I-3 compared with non-deuterated analogue methyl 7-bromo-8-((4-methylpiperazin-1-yl)methyl)-2-oxo-2H-selenopheno[3,2-h]chromene-3-carboxylate dihydrochloride (I-0) was tested in vitro using lysate of human hepatoma cells HepG2. The results are presented in FIG. 1 (x-axis—minutes of incubation, y-axis—percent of remained ester).

[9] = test system: GM08402 (human fibroblast, apparently healthy); test: In vitro cytotoxicity (MTT) on GM08402; assay type: cell-based; settings: 48 h
Protocol: as §1, §2

[10] = test system: 3T3 (mouse embryo fibroblasts); test: In vitro cytotoxicity (MTT) on 3T3; assay type: cell-based; settings: 3T3, MTT, 48 h
Protocol: as §1, §2

[11] = test system: H9C2 (rat cardiomyocytes); test: In vitro cytotoxicity (MTT) on H9C2; assay type: cell-based; settings: 48 h
Protocol: as §1, §2

| Molecule | IC50 (MDA-MB-231; Homo sapiens) | IC50 ([1]; Homo sapiens, MCF7) | IC50 ([2]; Homo sapiens) | IC50 ([3]; Homo sapiens) | IC50 ([4]; Homo sapiens) | IC50 at 48 h [5] | IC50 at 48 h [6] | IC50 at 48 h [7] | percent of remained ester ([8]; after 240 minutes of incubation) | stability to hydrolysis (in words) ([8]; incubation up to 240 min, FIG. 1) | IC50 (MDA-MB-231) | IC50 [1] | IC50 [2] | IC50 [3] | IC50 [4] | IC50 [9] | IC50 [10] | IC50 [11] |
| --- | --- | --- | --- | --- | --- | --- | --- | --- | --- | --- | --- | --- | --- | --- | --- | --- | --- | --- |
| COC(=O)c1cc2ccc3c(Br)c(CN4CCN(C)CC4)[se]c3c2oc1=O [Compound I-0, methyl 7-bromo-8-((4-methylpiperazin-1-yl)methyl)-2-oxo-2H-selenopheno[3,2-h]chromene-3-carboxylate dihydrochloride, reference compound] | 95 ± 4 µM | 54 ± 6 µM | 56 ± 1 µM | 58 ± 5 µM | > 100 µM | 77 ± 16 µM | 100 ± 5 µM | 92 ± 12 µM | – | – | – | – | – | – | – | – | – | – |
| [2H]C([2H])([2H])OC(=O)c1cc2ccc3c(Br)c(CN4CCN(C)CC4)[se]c3c2oc1=O [Compound I-1, Methyl-d3 7-bromo-8-((4-methylpiperazin-1-yl)methyl)-2-oxo-2H-selenopheno[3,2-h]chromene-3-carboxylate dihydrochloride] | 84 ± 13 µM | 82 ± 5 µM | 40 ± 7 µM | 70 ± 6 µM | 105 ± 7 µM | 89 ± 16 µM | 66 ± 11 µM | 82 ± 14 µM | – | – | – | – | – | – | – | – | – | – |
| Cl.Cl.[2H]C([2H])([2H])C([2H])([2H])OC(=O)c1cc2ccc3c(Br)c(CN4CCN(C)CC4)[se]c3c2oc1=O [Compound I-2, Ethyl-d5 7-bromo-8-((4-methylpiperazin-1-yl)methyl)-2-oxo-2H-selenopheno[3,2-h]chromene-3-carboxylate dihydrochloride] | 90 ± 15 µM | 46 ± 4 µM | 56 ± 15 µM | 59 ± 6 µM | > 100 µM | 94 ± 8 µM | 64 ± 9 µM | 73 ± 4 µM | – | – | – | – | – | – | – | – | – | – |
| Butyl-d9 7-bromo-8-((4-methylpiperazin-1-yl)methyl)-2-oxo-2H-selenopheno[3,2-h]chromene-3-carboxylate dihydrochloride [Compound I-3] | – | – | – | – | – | – | – | – | 24% | highest stability to hydrolysis | 35 ± 8 µM | 70 ± 3 µM | 29 ± 3 µM | 31 ± 3 µM | 40 ± 13 µM | 62 ± 3 µM | 34 ± 7 µM | 30 ± 4 µM |

Source: patent US12612417B2, “Deuterated analogues of selenophenochromenes, synthesis thereof, and methods of using same agents” (Latvian Institute of Organic Synthesis, priority 2019, dated 2026)
